Values after ≈ are worked out from the molar mass of the structure shown. Where a name gives a salt, the structure may show the parent alone.
What was measured:
Test in all cases: Agar dilution test, minimum inhibitory concentration
Assay type in all cases: cell-based
Providencia 12052 = conditions: test strain Providencia 12052; Isosensitest-Agar (Oxoid), inoculum ca. 10^4 germs per inoculation point; read-out: Minimale Hemmkonzentrationen
Staph. 133 = conditions: test strain Staph. 133; Isosensitest-Agar (Oxoid), inoculum ca. 10^4 germs per inoculation point; read-out: Minimale Hemmkonzentrationen
Proteus mir. 8175 = conditions: test strain Proteus mir. 8175; Isosensitest-Agar (Oxoid), inoculum ca. 10^4 germs per inoculation point; read-out: Minimale Hemmkonzentrationen
Serratia 16040 = conditions: test strain Serratia 16040; Isosensitest-Agar (Oxoid), inoculum ca. 10^4 germs per inoculation point; read-out: Minimale Hemmkonzentrationen
Staph. 1756 = conditions: test strain Staph. 1756; Isosensitest-Agar (Oxoid), inoculum ca. 10^4 germs per inoculation point; read-out: Minimale Hemmkonzentrationen
Proteus mir. 8223 = conditions: test strain Proteus mir. 8223; Isosensitest-Agar (Oxoid), inoculum ca. 10^4 germs per inoculation point; read-out: Minimale Hemmkonzentrationen
Staph. FK 422 = conditions: test strain Staph. FK 422; Isosensitest-Agar (Oxoid), inoculum ca. 10^4 germs per inoculation point; read-out: Minimale Hemmkonzentrationen
Pseudomonas Walter = conditions: test strain Pseudomonas Walter; Isosensitest-Agar (Oxoid), inoculum ca. 10^4 germs per inoculation point; read-out: Minimale Hemmkonzentrationen
E.coli 455/7 = conditions: Escherichia coli; test strain E.coli 455/7; Isosensitest-Agar (Oxoid), inoculum ca. 10^4 germs per inoculation point; read-out: Minimale Hemmkonzentrationen
Morg. morg. 932 = conditions: test strain Morg. morg. 932; Isosensitest-Agar (Oxoid), inoculum ca. 10^4 germs per inoculation point; read-out: Minimale Hemmkonzentrationen
Enteroc. 9790 = conditions: test strain Enteroc. 9790; Isosensitest-Agar (Oxoid), inoculum ca. 10^4 germs per inoculation point; read-out: Minimale Hemmkonzentrationen
Klebsiella 8085 = conditions: test strain Klebsiella 8085; Isosensitest-Agar (Oxoid), inoculum ca. 10^4 germs per inoculation point; read-out: Minimale Hemmkonzentrationen
Morg. morg. 11006 = conditions: test strain Morg. morg. 11006; Isosensitest-Agar (Oxoid), inoculum ca. 10^4 germs per inoculation point; read-out: Minimale Hemmkonzentrationen
Klebsiella 63 = conditions: test strain Klebsiella 63; Isosensitest-Agar (Oxoid), inoculum ca. 10^4 germs per inoculation point; read-out: Minimale Hemmkonzentrationen
Providencia 12012 = conditions: test strain Providencia 12012; Isosensitest-Agar (Oxoid), inoculum ca. 10^4 germs per inoculation point; read-out: Minimale Hemmkonzentrationen
Pseudomonas Ellsworth = conditions: test strain Pseudomonas Ellsworth; Isosensitest-Agar (Oxoid), inoculum ca. 10^4 germs per inoculation point; read-out: Minimale Hemmkonzentrationen
E.coli A261 = conditions: Escherichia coli; test strain E.coli A261; Isosensitest-Agar (Oxoid), inoculum ca. 10^4 germs per inoculation point; read-out: Minimale Hemmkonzentrationen
Enteroc. 27101 = conditions: test strain Enteroc. 27101; Isosensitest-Agar (Oxoid), inoculum ca. 10^4 germs per inoculation point; read-out: Minimale Hemmkonzentrationen
Proteus vulg. 1017 = conditions: test strain Proteus vulg. 1017; Isosensitest-Agar (Oxoid), inoculum ca. 10^4 germs per inoculation point; read-out: Minimale Hemmkonzentrationen
E.coli Neumann = conditions: Escherichia coli; test strain E.coli Neumann; Isosensitest-Agar (Oxoid), inoculum ca. 10^4 germs per inoculation point; read-out: Minimale Hemmkonzentrationen

MIC (Providencia 12052)	MIC (Staph. 133)	MIC (Proteus mir. 8175)	MIC (Serratia 16040)	MIC (Staph. 1756)	MIC (Proteus mir. 8223)	MIC (Staph. FK 422)	MIC (Pseudomonas Walter)	MIC (E.coli 455/7)	MIC (Morg. morg. 932)	MIC (Enteroc. 9790)	MIC (Klebsiella 8085)	MIC (Morg. morg. 11006)	MIC (Klebsiella 63)	MIC (Providencia 12012)	MIC (Pseudomonas Ellsworth)	MIC (E.coli A261)	MIC (Enteroc. 27101)	MIC (Proteus vulg. 1017)	MIC (E.coli Neumann)	Structure (SMILES)
2 µg/mL (≈ 5.29 µM)	0.03 µg/mL (≈ 0.0793 µM)	0.06 µg/mL (≈ 0.159 µM)	2 µg/mL (≈ 5.29 µM)	0.03 µg/mL (≈ 0.0793 µM)	0.25 µg/mL (≈ 0.661 µM)	0.03 µg/mL (≈ 0.0793 µM)	0.25 µg/mL (≈ 0.661 µM)	0.5 µg/mL (≈ 1.32 µM)	–	–	–	–	–	–	–	–	–	–	–	CC1CN(c2c(F)c(N)c3c(=O)c(C(=O)O)cn(C4CC4)c3c2F)CCN1 (stereo not shown) [Beispiel 17, 5-Amino-1-cyclopropyl-6,8-difluor-1,4-dihydro-7-(3-methyl-1-piperazinyl)-4-oxo-3-chinolincarbonsäure]
1 µg/mL (≈ 2.55 µM)	0.03 µg/mL (≈ 0.0765 µM)	0.06 µg/mL (≈ 0.153 µM)	2 µg/mL (≈ 5.1 µM)	0.03 µg/mL (≈ 0.0765 µM)	0.5 µg/mL (≈ 1.27 µM)	0.03 µg/mL (≈ 0.0765 µM)	0.5 µg/mL (≈ 1.27 µM)	0.5 µg/mL (≈ 1.27 µM)	0.03 µg/mL (≈ 0.0765 µM)	0.25 µg/mL (≈ 0.637 µM)	0.06 µg/mL (≈ 0.153 µM)	0.03 µg/mL (≈ 0.0765 µM)	0.03 µg/mL (≈ 0.0765 µM)	0.03 µg/mL (≈ 0.0765 µM)	0.03 µg/mL (≈ 0.0765 µM)	–	–	–	–	C[C@@H]1CN(c2c(F)c(N)c3c(=O)c(C(=O)O)cn(C4CC4)c3c2F)C[C@H](C)N1 [Beispiel 22, 5-Amino-1-cyclopropyl-6,8-difluor-1,4-dihydro-7-(cis-3,5-dimethyl-1-piperazinyl)-4-oxo-3-chinolincarbonsäure]
2 µg/mL (≈ 4.9 µM)	0.06 µg/mL (≈ 0.147 µM)	–	4 µg/mL (≈ 9.79 µM)	0.06 µg/mL (≈ 0.147 µM)	0.5 µg/mL (≈ 1.22 µM)	0.06 µg/mL (≈ 0.147 µM)	1 µg/mL (≈ 2.45 µM)	2 µg/mL (≈ 4.9 µM)	0.03 µg/mL (≈ 0.0735 µM)	0.25 µg/mL (≈ 0.612 µM)	0.06 µg/mL (≈ 0.147 µM)	–	0.06 µg/mL (≈ 0.147 µM)	0.06 µg/mL (≈ 0.147 µM)	–	0.5 µg/mL (≈ 1.22 µM)	0.25 µg/mL (≈ 0.612 µM)	–	–	Nc1c(F)c(N2CCN(CCO)CC2)c(F)c2c1c(=O)c(C(=O)O)cn2C1CC1 [Beispiel 21]
8 µg/mL (≈ 21.9 µM)	0.03 µg/mL (≈ 0.0821 µM)	–	8 µg/mL (≈ 21.9 µM)	0.03 µg/mL (≈ 0.0821 µM)	0.5 µg/mL (≈ 1.37 µM)	0.03 µg/mL (≈ 0.0821 µM)	2 µg/mL (≈ 5.47 µM)	16 µg/mL (≈ 43.8 µM)	0.03 µg/mL (≈ 0.0821 µM)	0.25 µg/mL (≈ 0.684 µM)	0.06 µg/mL (≈ 0.164 µM)	–	0.06 µg/mL (≈ 0.164 µM)	0.06 µg/mL (≈ 0.164 µM)	0.03 µg/mL (≈ 0.0821 µM)	4 µg/mL (≈ 10.9 µM)	0.25 µg/mL (≈ 0.684 µM)	0.03 µg/mL (≈ 0.0821 µM)	0.03 µg/mL (≈ 0.0821 µM)	Nc1c(F)c(N2CCOCC2)c(F)c2c1c(=O)c(C(=O)O)cn2C1CC1 [Beispiel 26, 5-Amino-1-cyclopropyl-6,8-difluor-1,4-dihydro-7-morpholino-4-oxo-3-chinolincarbonsäure]
1 µg/mL	0.03 µg/mL	0.06 µg/mL	4 µg/mL	0.03 µg/mL	0.5 µg/mL	0.03 µg/mL	1 µg/mL	1 µg/mL	–	0.03 µg/mL	0.03 µg/mL	0.03 µg/mL	–	0.03 µg/mL	0.03 µg/mL	0.06 µg/mL	0.03 µg/mL	–	–	CCNCC1CCN(c2c(F)c(N)c3c(=O)c(C(=O)O)cn(C4CC4)c3c2F)C1 (stereo not shown) [Beispiel 32, 5-Amino-1-cyclopropyl-7-(3-ethylaminomethyl-1-pyrrolidinyl)-6.8-difluor-1,4-dihydro-4-oxo-3-chinolincarbonsäure-hydrochlorid-hydrat]
4 µg/mL (≈ 10.2 µM)	–	–	4 µg/mL (≈ 10.2 µM)	–	1 µg/mL (≈ 2.56 µM)	–	0.5 µg/mL (≈ 1.28 µM)	1 µg/mL (≈ 2.56 µM)	–	–	0.06 µg/mL (≈ 0.154 µM)	0.03 µg/mL (≈ 0.0768 µM)	0.03 µg/mL (≈ 0.0768 µM)	0.06 µg/mL (≈ 0.154 µM)	0.03 µg/mL (≈ 0.0768 µM)	–	–	–	–	Nc1c(F)c(N2CCN3CCC2C3)c(F)c2c1c(=O)c(C(=O)O)cn2C1CC1 (stereo not shown) [Beispiel 25, 5-Amino-1-cyclopropyl-7-(1,4-diazabicyclo[3.2.1]oct-4-yl)-6,8-difluor-1,4-dihydro-4-oxo-3-chinolincarbonsäure]
1 µg/mL (≈ 2.74 µM)	–	–	1 µg/mL (≈ 2.74 µM)	–	0.06 µg/mL (≈ 0.164 µM)	–	0.25 µg/mL (≈ 0.684 µM)	2 µg/mL (≈ 5.47 µM)	–	0.03 µg/mL (≈ 0.0821 µM)	–	–	–	–	0.03 µg/mL (≈ 0.0821 µM)	0.25 µg/mL (≈ 0.684 µM)	0.03 µg/mL (≈ 0.0821 µM)	–	–	Nc1c(F)c(N2CCC(O)C2)c(F)c2c1c(=O)c(C(=O)O)cn2C1CC1 (stereo not shown) [Beispiel 28, 5-Amino-1-cyclopropyl-6,8-difluor-1,4-dihydro-7-(3-hydroxy-1-pyrrolidinyl)-4-oxo-3-chinolincarbonsäure]
1 µg/mL (≈ 2.55 µM)	0.06 µg/mL (≈ 0.153 µM)	–	4 µg/mL (≈ 10.2 µM)	0.06 µg/mL (≈ 0.153 µM)	0.25 µg/mL (≈ 0.637 µM)	0.06 µg/mL (≈ 0.153 µM)	1 µg/mL (≈ 2.55 µM)	2 µg/mL (≈ 5.1 µM)	0.03 µg/mL (≈ 0.0765 µM)	0.25 µg/mL (≈ 0.637 µM)	0.06 µg/mL (≈ 0.153 µM)	0.06 µg/mL (≈ 0.153 µM)	0.03 µg/mL (≈ 0.0765 µM)	0.06 µg/mL (≈ 0.153 µM)	0.03 µg/mL (≈ 0.0765 µM)	0.25 µg/mL (≈ 0.637 µM)	0.25 µg/mL (≈ 0.637 µM)	–	–	CCN1CCN(c2c(F)c(N)c3c(=O)c(C(=O)O)cn(C4CC4)c3c2F)CC1 [Beispiel 20, 5-Amino-1-cyclopropyl-7-(4-ethyl-1-piperazinyl)-6,8-difluor-1.4-dihydro-4-oxo-3-chinolincarbonsäure]
1 µg/mL (≈ 2.27 µM)	–	0.06 µg/mL (≈ 0.136 µM)	2 µg/mL (≈ 4.54 µM)	–	–	–	1 µg/mL (≈ 2.27 µM)	1 µg/mL (≈ 2.27 µM)	–	0.06 µg/mL (≈ 0.136 µM)	0.03 µg/mL (≈ 0.0681 µM)	0.03 µg/mL (≈ 0.0681 µM)	–	–	–	0.25 µg/mL (≈ 0.568 µM)	0.03 µg/mL (≈ 0.0681 µM)	–	–	Nc1c(F)c(N2CCNC(c3ccccc3)C2)c(F)c2c1c(=O)c(C(=O)O)cn2C1CC1 (stereo not shown) [Beispiel 23, 5-Amino-1-cyclopropyl-6,8-difluor-1,4-dihydro-4-oxo-7-(3-phenyl-1-piperazinyl)-3-chinolincarbonsäure]
8 µg/mL (≈ 22.9 µM)	–	0.25 µg/mL (≈ 0.716 µM)	16 µg/mL (≈ 45.8 µM)	–	0.25 µg/mL (≈ 0.716 µM)	–	1 µg/mL (≈ 2.86 µM)	16 µg/mL (≈ 45.8 µM)	0.06 µg/mL (≈ 0.172 µM)	–	–	–	–	0.06 µg/mL (≈ 0.172 µM)	–	2 µg/mL (≈ 5.73 µM)	0.03 µg/mL (≈ 0.0859 µM)	0.06 µg/mL (≈ 0.172 µM)	–	Nc1c(F)c(N2CCCC2)c(F)c2c1c(=O)c(C(=O)O)cn2C1CC1 [Beispiel 27, 5-Amino-1-cyclopropyl-6,8-difluor-1,4-dihydro-4-oxo-7-(1-pyrrolidinyl)-3-chinolincarbonsäure]
4 µg/mL (≈ 11.6 µM)	0.03 µg/mL (≈ 0.0866 µM)	0.06 µg/mL (≈ 0.173 µM)	8 µg/mL (≈ 23.1 µM)	–	2 µg/mL (≈ 5.78 µM)	–	2 µg/mL (≈ 5.78 µM)	16 µg/mL (≈ 46.2 µM)	–	0.25 µg/mL (≈ 0.722 µM)	0.03 µg/mL (≈ 0.0866 µM)	0.06 µg/mL (≈ 0.173 µM)	0.06 µg/mL (≈ 0.173 µM)	–	0.25 µg/mL (≈ 0.722 µM)	2 µg/mL (≈ 5.78 µM)	0.25 µg/mL (≈ 0.722 µM)	–	0.03 µg/mL (≈ 0.0866 µM)	Nc1c(F)c(-n2ccnc2)c(F)c2c1c(=O)c(C(=O)O)cn2C1CC1 [Beispiel 30, 5-Amino-1-cyclopropyl-6,8-difluor-1,4-dihydro-7-(1-imidazolyl)-4-oxo-3-chinolincarbonsäure-methansulfonat]
4 µg/mL (≈ 8.73 µM)	0.06 µg/mL (≈ 0.131 µM)	0.25 µg/mL (≈ 0.545 µM)	8 µg/mL (≈ 17.5 µM)	0.06 µg/mL (≈ 0.131 µM)	2 µg/mL (≈ 4.36 µM)	–	2 µg/mL (≈ 4.36 µM)	4 µg/mL (≈ 8.73 µM)	–	0.25 µg/mL (≈ 0.545 µM)	–	0.25 µg/mL (≈ 0.545 µM)	–	–	0.25 µg/mL (≈ 0.545 µM)	1 µg/mL (≈ 2.18 µM)	0.25 µg/mL (≈ 0.545 µM)	0.06 µg/mL (≈ 0.131 µM)	–	Nc1c(F)c(N2CCNC(c3ccc(F)cc3)C2)c(F)c2c1c(=O)c(C(=O)O)cn2C1CC1 (stereo not shown) [Beispiel 24, 5-Amino-1-cyclopropyl-6,8-difluor-7-[3-(4-fluorphenyl)-1-piperazinyl]-1,4-dihydro-4-oxo-3-chinolincarbonsäure]

Source: patent EP0284935A1, “5-Substituted quinolone- and naphthyridone carboxylic acid derivatives” (BAYER AG, priority 1987, dated 1988)
